Literature values in US7541158B2, “Taste receptors of the T1R family from domestic dog” (Monell Chemical Senses Center, priority 2004, dated 2009).

How the values were obtained:
[1] = system: dog; conditions: neurophysiological studies; mono- and disaccharides and sweeteners
[2] = system: dog taste nerve fibers; conditions: for response of dog taste nerve fibers that respond to sucrose: sucrose-responsive fibers
[3] = system: domestic dog

Row | Structure (SMILES) | taste response activity in the dog [1] | response of dog taste nerve fibers that respond to sucrose [2] | behavioral preference ([3]; behavior said to be congenital) | response of dog taste nerve fibers fired by saccharin ([2]; saccharin-responsive fibers) | taste quality perceived by dog [3]
1 | OC[C@H]1O[C@](O)(CO)[C@@H](O)[C@@H]1O [β-D-fructose] | Particularly active |  |  |  | 
2 | O=C(CO)[C@@H](O)[C@H](O)[C@H](O)CO [D-fructose] | Particularly active |  |  |  | 
3 | OC[C@H]1O[C@@](CO)(O[C@H]2O[C@H](CO)[C@@H](O)[C@H](O)[C@H]2O)[C@@H](O)[C@@H]1O [sucrose] | Particularly active | responded | shows a preference |  | 
4 | O=C1NS(=O)(=O)c2ccccc21 [saccharin] |  | no response |  | fired | bitter
